For 2 molecules, IC50 and Km results are on record in publication PMC2761036 (Analytical biochemistry, 2009).

Holding throughout (assay type): biochemical
In test [1] the target is T1, Sfp (Bacillus subtilis, UniProt P39135). As to the kind of experiment: FRET phosphopantetheinyl transferase assay with purified enzyme.
In test [2] the target is T2, AcpS (Escherichia coli, UniProt P24224). The test is described as above.
For test [3], the target named is T1, Sfp. Briefly: HPLC enzyme kinetics.
Test [4] has as its target T2, AcpS. Briefly: HPLC enzyme kinetics.

T1 sequence (P39135 whole entry): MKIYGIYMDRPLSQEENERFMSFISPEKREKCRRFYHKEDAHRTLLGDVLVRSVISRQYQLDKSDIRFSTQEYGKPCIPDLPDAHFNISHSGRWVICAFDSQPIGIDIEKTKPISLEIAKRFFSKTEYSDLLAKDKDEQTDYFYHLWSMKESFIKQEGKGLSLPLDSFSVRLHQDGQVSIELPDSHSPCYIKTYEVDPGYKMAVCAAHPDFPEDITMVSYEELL
T2 sequence (P24224 2-126): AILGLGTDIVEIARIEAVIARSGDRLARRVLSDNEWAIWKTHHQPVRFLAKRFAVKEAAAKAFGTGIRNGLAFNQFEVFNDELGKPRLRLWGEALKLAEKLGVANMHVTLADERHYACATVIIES

For the molecule `Nc1ncnc2c1ncn2[C@@H]1O[C@H](COP(=O)(O)O)[C@@H](OP(=O)(O)O)[C@H]1O` [compound 3, 3’-phosphoadenosine-5’-phosphate], the IC50 at Sfp [1] was determined as 12.3 ± 1.1 µM; on AcpS [2] it was 92 ± 6 µM.
With TAMRA-mCoA [compound 12], the Michaelis-Menten constant (Km) on Sfp [3] worked out at 6 µM; on AcpS [4] it was 22 µM.

By IC50 is commonly meant the concentration at which inhibition is half-maximal. A higher IC50 goes with lower potency. The Km is the substrate concentration at which the rate is half of its maximum.
